The target of one experiment is Antithrombin (Homo sapiens, UniProt P01008). The following applies: cited from earlier work.
Experiment [1] is described as follows: Photoacoustic spectra of contaminated heparin in the presence of methylene blue. The following applies: 5 wt. % contaminated heparin. The source says: In one exemplary implementation, the photoacoustic imaging system used for measurements is a Vevo 2100 commercial instrument (Visualsonics). The scanner is equipped with a 21 MHz-centered transducer (LZ250) and a Q-switched Nd:YAG laser. The laser uses an optical parameteric oscillator and second harmonic generator to generate a tunable laser between 680 and 970 nm with a 1 nm step size and a pulse of 4 to 6 ns at 20 Hz. The peak energy is 45±5 mJ at 20 Hz at the source. The full field-of-view is 14-23 mm wide. The acquisition rate is 5 frames per second. The samples were prepared in small tubing fixed in a self-developed phantom holder which was aligned at ˜10 mm under the transducer. The laser energy was calibrated and optimized using the build-in energy power meter and software before measurements. 100% laser energy was used with 21 MHz frequency and the gain was optimized from 10-40 dB to obtain 3D scans at 680-850 nm as well as photoacoustic spectra from 680 to 850 nm.
1×PBS solution was prepared via dissolving one PBS tablet into 200 mL deionized water. The 2 mM methylene blue was prepared fresh by dissolving reagent-grade powder in PBS followed by sonication for 30 minutes at 40 C and then filtering through 0.22 μm. The 0.4 mM methylene blue was prepared by dissolving 2 mM methylene blue with PBS. A batch of OSCS/heparin mixture that simulates OSCS contaminated heparin was prepared at the following steps: 100 μL of 50, 25, 5, 2.5, 0.5, 0.25 μg/mL OSCS, and PBS was added into 100 uL 1000 μg/mL heparin prepared in PBS solution, respectively. The working concentration of OSCS in the above solutions was 25, 12.5, 2.5, 1.25, 0.25, 0.125, 0.025, and 0 μg/mL OSCS, respectively, and the working concentration of heparin is 500 μg/mL. In other words, the heparin solution was contaminated by 5, 2.5, […], 0.05, 0.025, and 0%. The contrast signal of methylene blue/heparin mixture was optimized at the combination of 0.4 mM methylene blue and […]. […]
Data analysis were performed using the scanner's built-in software. […] The average and standard deviation were calculated. […]

Experiment [2] in a line: Photoacoustic response of nanoparticle-bound methylene blue coating to heparin and protamine. The following applies: 50 U/mL heparin-treated device, protamine 8 mg/mL. The protocol: The surface charge of these nanoparticle is −23 mV, which is too negative to allow association between the nanoparticle-bound dye and negatively charged heparin. Therefore, the charge of the particle was changed to produce a material that was both stable and responsive to heparin. To tune the nanoparticles, the same were treated with (3-mercaptopropyl) trimethoxysilane (MPTMS) to adjust the zeta potential to −15 mV (SSNP-SH). This material was used with agar gel to create a coating on a catheter tube.
More importantly, the methylene blue on these modified nanoparticles remain responsive to heparin with 51% more photoacoustic signal at 10 U/mL heparin than PBS for 1 h incubation. The signal enhancement was stable after constant imaging at 680 nm for 9 min (RSD<4%) This system was also reversible. When the 50 U/mL-treated device was reversed with protamine (8 mg/mL), the signal decreased by 42% versus no protamine treatment. The higher signal of the heparin-treated hybrid versus PBS-treated hybrid is likely due to interactions between methylene blue and heparin, which increases the photoacoustic signal and decreases diffusion of this complex and free methylene blue into solution.

Sequence of Antithrombin (P01008 33-464): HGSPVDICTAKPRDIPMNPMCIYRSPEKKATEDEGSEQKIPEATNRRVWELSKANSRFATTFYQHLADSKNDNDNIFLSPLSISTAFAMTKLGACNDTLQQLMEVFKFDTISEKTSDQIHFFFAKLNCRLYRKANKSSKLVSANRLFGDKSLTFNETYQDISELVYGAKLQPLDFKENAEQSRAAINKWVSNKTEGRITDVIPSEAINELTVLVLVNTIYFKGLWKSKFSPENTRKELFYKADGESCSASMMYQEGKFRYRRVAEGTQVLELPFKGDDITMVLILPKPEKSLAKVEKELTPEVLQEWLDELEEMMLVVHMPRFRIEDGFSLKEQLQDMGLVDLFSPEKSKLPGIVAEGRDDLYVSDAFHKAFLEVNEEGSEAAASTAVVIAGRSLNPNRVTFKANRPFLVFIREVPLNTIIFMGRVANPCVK

For heparin, the “increase of the activity of antithrombin” value on Antithrombin is 10^3 fold.

Regarding chondroitin sulfate [CS], the “715 nm peak amplified compared to pure heparin in methylene blue” value in experiment [1] is recorded as 476%. As to oversulfated chondroitin sulfate [OSCS], in experiment [1], the “715 nm peak amplified compared to pure heparin in methylene blue” value was determined as 400%. On the same count and under the same terms, with dermatan sulfate [DS] the figure was 475%. Regarding protamine sulfate, the “signal decrease versus no protamine treatment” value in experiment [2] is 42%.

These data come from patent US20190029637A1, “A WEARABLE SENSOR, AND METHOD, TO MONITOR ANTI-COAGULATION THERAPY” (The Regents of the University of California, priority 2016, published 2019).
